Among the test systems are 786-0 renal; SR leukemia; U251 CNS; MALME-3M melanoma; OVCAR-3 ovarian; NCI-H460 lung; HL-60(TB) leukemia; SN12C renal; NCI-H226 lung.
What all share (test): NCI-60 cell line screen, 48 h

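Each compound was tested at five concentrations against cells in 96-well plates for 48 hours. The concentration for full growth arrest is given as TGI.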

Consider `COc1cc(/C=C(\C)[N+](=O)[O-])cc(OC)c1`, for which the TGI with 786-0 renal worked out at 8.95 µM; in the assay with SR leukemia, 7.04 µM; with U251 CNS, 32.1 µM; in the assay on MALME-3M melanoma it was 29.4 µM; in the assay on OVCAR-3 ovarian it was 31.8 µM; in the assay with NCI-H460 lung, 39.5 µM. Further, the figures for the TGI in the assay on HL-60(TB) leukemia, in the assay with SN12C renal and in the assay with NCI-H226 lung were 4.33 µM, 31 µM and greater than 94.7 µM, respectively.

Turning to `CC(=O)OC1CCn2c1nc1cc([N+](=O)[O-])c(C)cc12` (stereo not given), the TGI in the assay on 786-0 renal, in the assay with SR leukemia, in the assay with U251 CNS, with MALME-3M melanoma, with OVCAR-3 ovarian and with NCI-H460 lung was greater than 100 µM in each case. In addition, the TGI in the assay on HL-60(TB) leukemia, in the assay with SN12C renal and in the assay on NCI-H226 lung was greater than 100 µM in each case.

With `CCOP1(=O)CC(C)=C(Cl)C(OC)C1` (stereo not given), the TGI in the assay on 786-0 renal, with SR leukemia, in the assay with U251 CNS, in the assay on MALME-3M melanoma, with OVCAR-3 ovarian and with NCI-H460 lung was greater than 100 µM each time. Also, the TGI in the assay on HL-60(TB) leukemia, in the assay on SN12C renal and in the assay with NCI-H226 lung was greater than 100 µM in each case.

Consider `CC(=O)OCC1OC(OCCCOP(=O)(OCCC#N)OCC2OC(n3cnc4c(N)ncnc43)C(OC(=O)c3ccccc3)C2OC(=O)c2ccccc2)C(OC(C)=O)C(OC(C)=O)C1OC(C)=O` (stereo not given), for which the TGI is greater than 100 µM in the assay with 786-0 renal; greater than 100 µM in the assay with SR leukemia; greater than 100 µM in the assay on U251 CNS; 5.53 µM in the assay with MALME-3M melanoma; greater than 100 µM in the assay on OVCAR-3 ovarian; greater than 100 µM with NCI-H460 lung. Also, the TGI in the assay with HL-60(TB) leukemia, in the assay on SN12C renal and with NCI-H226 lung was greater than 100 µM in each case.

Turning to `Nc1nc(Sc2ccc([N+](=O)[O-])c3nonc23)c2[nH]cnc2n1`, the TGI in the assay with 786-0 renal worked out at 3.18 µM; in the assay on SR leukemia, 1.77 µM; with U251 CNS, 21.7 µM; in the assay on MALME-3M melanoma, 5.03 µM; with OVCAR-3 ovarian it was 13.8 µM; with NCI-H460 lung, 10.7 µM. Besides, the values for the TGI with HL-60(TB) leukemia, in the assay with SN12C renal and in the assay with NCI-H226 lung were 4.86 µM, 27.2 µM and 11.3 µM, respectively.

`S=c1ncc(-c2cncc(-c3cnc(=S)[nH]c3)n2)c[nH]1`: the TGI in the assay with 786-0 renal, in the assay on SR leukemia, in the assay on U251 CNS, in the assay on MALME-3M melanoma, in the assay with OVCAR-3 ovarian and in the assay on NCI-H460 lung was greater than 100 µM throughout. Further, the TGI in the assay with HL-60(TB) leukemia, in the assay on SN12C renal and with NCI-H226 lung was greater than 100 µM in each case.

Consider `Nc1nc(Cl)c(CO)c(NCC2(CO)CCC2)n1`, for which the TGI in the assay on 786-0 renal, in the assay on SR leukemia, in the assay on U251 CNS, in the assay with MALME-3M melanoma, in the assay on OVCAR-3 ovarian and in the assay with NCI-H460 lung was greater than 100 µM in each case. The TGI in the assay on HL-60(TB) leukemia, with SN12C renal and with NCI-H226 lung was greater than 100 µM each time.

As to `O/N=C\c1c2c(cc3c1CCC3)CCC2`, the TGI in the assay with 786-0 renal, with SR leukemia, with U251 CNS, in the assay on MALME-3M melanoma, in the assay with OVCAR-3 ovarian and in the assay with NCI-H460 lung was greater than 100 µM each time. The TGI in the assay on HL-60(TB) leukemia, with SN12C renal and with NCI-H226 lung was greater than 100 µM throughout.

`Nc1nc(N)c2nc(CN(C=O)c3ccc(C(=O)O)cc3)cnc2n1`: the TGI in the assay with 786-0 renal, in the assay with SR leukemia, in the assay with U251 CNS, with MALME-3M melanoma, in the assay on OVCAR-3 ovarian and in the assay on NCI-H460 lung was greater than 100 µM in each case. The TGI in the assay on HL-60(TB) leukemia, with SN12C renal and in the assay with NCI-H226 lung was greater than 100 µM each time.

As to `O=c1c(-c2nc3ccccc3c3ccccc3c2=O)nc2ccccc2c2ccccc12`, the TGI in the assay on 786-0 renal is greater than 100 µM; in the assay with SR leukemia it was 61 µM; in the assay on U251 CNS, 60.3 µM; with MALME-3M melanoma it was greater than 100 µM; with OVCAR-3 ovarian, 97.3 µM; in the assay with NCI-H460 lung, greater than 100 µM. For the same compound, the TGI in the assay with HL-60(TB) leukemia was 58.5 µM; with SN12C renal it was 99.1 µM; with NCI-H226 lung it was greater than 100 µM.

Consider `Cc1ccc(C2=CC(=O)/C(=C\C(=O)c3ccc(Br)cc3)O2)c(C)c1`, for which the TGI is 16 µM in the assay on 786-0 renal; 12.6 µM with SR leukemia; 43.9 µM with U251 CNS; 21.3 µM in the assay on MALME-3M melanoma; 16.1 µM in the assay with OVCAR-3 ovarian; 69.2 µM with NCI-H460 lung. Besides, the TGI was greater than 100 µM with HL-60(TB) leukemia, greater than 21.8 µM in the assay with SN12C renal and 30.8 µM in the assay on NCI-H226 lung.

Regarding `ClC1=NSSC1(Cl)Cl`, the TGI with 786-0 renal is 59.3 µM; in the assay with SR leukemia, 60.2 µM; with U251 CNS, greater than 100 µM; with MALME-3M melanoma, greater than 100 µM; with OVCAR-3 ovarian, 64.5 µM; with NCI-H460 lung, greater than 100 µM. Further, the values for the TGI in the assay on HL-60(TB) leukemia, with SN12C renal and in the assay on NCI-H226 lung were 5.25 µM, 41.7 µM and greater than 100 µM, respectively.

In the case of `CC(=O)Oc1ccc2cc(Oc3cc(Cl)c(Cl)cc3Cl)c(=O)oc2c1`, the TGI with 786-0 renal stood at 29 µM; with SR leukemia, 67.6 µM; in the assay with U251 CNS, 32.5 µM; in the assay on MALME-3M melanoma, 31.3 µM; in the assay with OVCAR-3 ovarian it was 31.6 µM; in the assay on NCI-H460 lung it was 37.8 µM. The TGI in the assay with HL-60(TB) leukemia is 68.8 µM; with SN12C renal, 28.1 µM; in the assay on NCI-H226 lung it was 36.7 µM.

`COc1cccc(NC(=O)CC(=O)NN)c1`: the TGI in the assay on 786-0 renal, in the assay on SR leukemia, in the assay on U251 CNS, in the assay with MALME-3M melanoma, with OVCAR-3 ovarian and in the assay with NCI-H460 lung was greater than 100 µM in each case. Also, the TGI with HL-60(TB) leukemia, with SN12C renal and in the assay on NCI-H226 lung was greater than 100 µM throughout.

With `Cc1nn2c(=O)c([N+](=O)[O-])c(/C=C/c3ccc(F)cc3)nc2s1`, the TGI in the assay on 786-0 renal stood at 20.9 µM; in the assay with SR leukemia, 16.5 µM; with U251 CNS, 14.6 µM; in the assay on MALME-3M melanoma it was 16.7 µM; in the assay on OVCAR-3 ovarian, 16.6 µM; with NCI-H460 lung, 22.9 µM. Moreover, the TGI in the assay with HL-60(TB) leukemia was found to be 18.1 µM; in the assay on SN12C renal, 21.2 µM; with NCI-H226 lung, 19 µM.

(Values after PubChem BioAssay (NCI).)
